One test concerns the target EGFR (L858R/T790M/C797S) (Homo sapiens, UniProt P00533, C797S/L858R/T790M). Put plainly: Cell degradation HTRF assay, BaF3-LTC cells. The class given is cell-based. Further details: expressed in transfected cells; host or cells: BaF3-LTC. The conditions noted are these: 16 h treatment; for DC50: HTRF; for Dmax: maximum percentage of degradation. The method, then: (§1) Cell Degradation of Example 1-28
(§2) BaF3-LTC (L858R/T790M/C797S) and BaF3-DTC (Del19/T790M/C797S) cells are treated with compounds diluted in 0.2% DMSO cell culture medium and incubate for 16 h, 37° C., 5% CO2. The final concentration of compounds in all assay is start with 10 uM, 4-fold dilution, total 8 doses were included.
(§3) After 16 h treatment, add HTRF lysis buffer to each well; seal the plate and incubate 1 hour at room temperature on a plate shaker; Once the cells are lysed, 16 μL of cell lysate are transferred to a PE 384-well HTRF detection plate; 4 μL of pre-mixed HTRF antibodies are added to each well; Cover the plate with a plate sealer, spin 1000 rpm for 1 min, Incubate overnight at room temperature; Read on BMG PheraStar with HTRF protocol (337 nm-665 nm-620 nm). The inhibition (degradation) percentage of the compound was calculated by the following equation:
(§4) Inhibition percentage of Compound=100−100×(Signal−low control)/(High control−low control), wherein signal=each test compound group.
(§5) High control=Cell group with added DMSO and without compound, indicating microplate readings without EGFR degradation;
(§6) Dmax is the maximum percentage of inhibition (degradation).
(§7) The IC50 (DC50) value of a compound can be obtained by fitting the following equation
(§8) Y=Bottom+(TOP−Bottom)/(1+((C50/X)^hillslope))
(§9) Wherein, X and Y are known values, and IC50, Hillslope, Top and Bottom are the parameters obtained by fitting with software. Y is the inhibition percentage (calculated from the equation), X is the concentration of the compound; IC50 is the concentration of the compound when the 50% inhibition is reached. The smaller the IC50 value is, the stronger the inhibitory ability of the compound is. Vice versa, the higher the IC50 value is, the weaker the ability the inhibitory ability of the compound is; Hillslope represents the slope of the fitted curve, generally around 1*; Bottom represents the minimum value of the curve obtained by data fitting, which is generally 000±20%; Top represents the maximum value of the curve obtained by data fitting, which is generally 100%±20%. The experimental data were fitted by calculating and analyzing with Dotmatics data analysis software. When Dmax<50%, DC50 will be automatically assigned as larger than […].

Another test has as its system EGFR (Del19/T790M/C797S). Description: Cell degradation HTRF assay, BaF3-DTC cells. The class given is cell-based. The conditions noted are these: 16 h treatment; for DC50: HTRF; for DTC Dmax (%): maximum percentage of degradation. The procedure: as §1, §2, §3, §4, §5, §6, §7, §8, §9

The structures appear in SMILES notation.

The values below come from patent publication US20240165243A1, “EGFR DEGRADERS AND METHODS OF USE” (BeiGene Switzerland GmbH, priority 2021, published 2024).

Chain of EGFR (L858R/T790M/C797S) (P00533 25-1210 T790M/C797S/L858R): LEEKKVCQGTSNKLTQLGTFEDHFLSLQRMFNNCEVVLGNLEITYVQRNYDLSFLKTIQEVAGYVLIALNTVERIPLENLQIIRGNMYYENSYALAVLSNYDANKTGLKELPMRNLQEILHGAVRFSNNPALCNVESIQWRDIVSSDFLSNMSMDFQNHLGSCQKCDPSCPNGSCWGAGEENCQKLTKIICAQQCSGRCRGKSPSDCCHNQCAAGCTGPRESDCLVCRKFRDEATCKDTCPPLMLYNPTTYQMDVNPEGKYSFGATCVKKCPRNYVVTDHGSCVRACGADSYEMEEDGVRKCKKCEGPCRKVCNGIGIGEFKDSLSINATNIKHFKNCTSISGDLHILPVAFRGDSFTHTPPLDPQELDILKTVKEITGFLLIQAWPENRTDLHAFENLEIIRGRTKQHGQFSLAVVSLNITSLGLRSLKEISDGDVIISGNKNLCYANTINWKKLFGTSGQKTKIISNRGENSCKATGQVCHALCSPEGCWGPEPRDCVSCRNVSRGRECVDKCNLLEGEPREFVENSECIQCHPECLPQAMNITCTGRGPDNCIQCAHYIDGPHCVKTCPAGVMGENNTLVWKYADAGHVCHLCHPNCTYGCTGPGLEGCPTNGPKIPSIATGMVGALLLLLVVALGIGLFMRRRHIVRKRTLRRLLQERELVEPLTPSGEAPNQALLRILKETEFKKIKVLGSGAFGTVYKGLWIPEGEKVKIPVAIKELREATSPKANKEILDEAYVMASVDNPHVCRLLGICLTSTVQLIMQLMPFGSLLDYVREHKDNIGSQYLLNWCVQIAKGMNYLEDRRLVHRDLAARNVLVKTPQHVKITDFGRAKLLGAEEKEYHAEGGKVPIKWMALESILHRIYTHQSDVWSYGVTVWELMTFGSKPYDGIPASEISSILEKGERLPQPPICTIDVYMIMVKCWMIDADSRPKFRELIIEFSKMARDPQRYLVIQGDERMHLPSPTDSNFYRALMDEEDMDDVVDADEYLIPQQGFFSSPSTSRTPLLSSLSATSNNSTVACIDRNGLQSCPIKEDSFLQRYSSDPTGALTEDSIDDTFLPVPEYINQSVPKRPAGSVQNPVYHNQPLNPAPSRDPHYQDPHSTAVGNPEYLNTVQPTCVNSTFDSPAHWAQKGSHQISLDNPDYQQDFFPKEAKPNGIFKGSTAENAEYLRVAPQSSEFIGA

On EGFR (L858R/T790M/C797S), `CCc1cc(Nc2ncc(Br)c(Nc3cnc4ccccc4c3P(C)(C)=O)n2)c(OC)cc1N1CCC(N2CCN(CCc3cccc4c3cnn4C3CCC(=O)NC3=O)CC2)CC1` (stereo not drawn) [Example 12, 3-(4-(2-(4-(1-(4-((5-bromo-4-((4-(dimethylphosphoryl)quinolin-3-yl)amino)pyrimidin-2-yl)amino)-2-ethyl-5-methoxyphenyl)piperidin-4-yl)piperazin-1-yl)ethyl)-1H-indazol-1-yl)piperidine-2,6-dione] displayed a DC50 of 0.0688 µM and a Dmax of 89.1%. In addition, in the test on EGFR (Del19/T790M/C797S), it took 0.0144 µM to reach half-maximal degradation (DC50) and the “DTC Dmax (%)” value is on record as 91.82%.
At EGFR (L858R/T790M/C797S), `CCc1cc(Nc2ncc(Br)c(Nc3cnc4ccccc4c3P(C)(C)=O)n2)c(OC)cc1N1CCC(N2CCN(CC3CN(c4cc(F)c(C5CCC(=O)NC5=O)c(F)c4)C3)CC2)CC1` (stereo not drawn) [Example 19, 3-(4-(3-((4-(1-(4-((5-bromo-4-((4-(dimethylphosphoryl)quinolin-3-yl)amino)pyrimidin-2-yl)amino)-2-ethyl-5-methoxyphenyl)piperidin-4-yl)piperazin-1-yl)methyl)azetidin-1-yl)-2,6-difluorophenyl)piperidine-2,6-dione] gave a DC50 of 0.00802 µM and a Dmax of 89.4%. Also, in the test with EGFR (Del19/T790M/C797S), the 50% degradation concentration (DC50) amounted to 0.00424 µM and the “DTC Dmax (%)” value was 97.44%.
On EGFR (L858R/T790M/C797S), `CCc1cc(Nc2ncc(Br)c(Nc3cnc4ccccc4c3P(C)(C)=O)n2)c(OC)cc1N1CCC(N2CCN(CCc3cccc4nn(C5CCC(=O)NC5=O)cc34)CC2)CC1` (stereo not drawn) [Example 14, 3-(4-(2-(4-(1-(4-((5-bromo-4-((4-(dimethylphosphoryl)quinolin-3-yl)amino)pyrimidin-2-yl)amino)-2-ethyl-5-methoxyphenyl)piperidin-4-yl)piperazin-1-yl)ethyl)-2H-indazol-2-yl)piperidine-2,6-dione] gave a 50% degradation concentration (DC50) of 0.546 µM and a Dmax of 84.6%. Besides, in the test with EGFR (Del19/T790M/C797S), the half-maximal degradation concentration (DC50) stood at 0.186 µM and the “DTC Dmax (%)” value was 81.73%.
`CCc1cc(Nc2ncc(Br)c(Nc3cnc4ccccc4c3P(C)(C)=O)n2)c(OC)cc1N1CCC(N2CCN(C(=O)C3CN(c4ccc5c(cnn5C5CCC(=O)NC5=O)c4)C3)CC2)CC1` (stereo not drawn) [Example 25, 3-(5-(3-(4-(1-(4-((5-bromo-4-((4-(dimethylphosphoryl)quinolin-3-yl)amino)pyrimidin-2-yl)amino)-2-ethyl-5-methoxyphenyl)piperidin-4-yl)piperazine-1-carbonyl)azetidin-1-yl)-1H-indazol-1-yl)piperidine-2,6-dione]: on EGFR (L858R/T790M/C797S), the half-maximal degradation concentration (DC50) was 0.00677 µM and the Dmax is 85%. For the same molecule, in the test on EGFR (Del19/T790M/C797S), the DC50 came out at 0.0018 µM and the “DTC Dmax (%)” value amounted to 88.68%.
`CCc1cc(Nc2ncc(Br)c(Nc3cnc4ccccc4c3P(C)(C)=O)n2)c(OC)cc1N1CCC(N2CCN(C(=O)C3CCN(c4ccc5c(c4)n(C)c(=O)n5C4CCC(=O)NC4=O)CC3)CC2)CC1` (stereo not drawn) [Example 15, 3-(5-(4-(4-(1-(4-((5-bromo-4-((4-(dimethylphosphoryl)quinolin-3-yl)amino)pyrimidin-2-yl)amino)-2-ethyl-5-methoxyphenyl)piperidin-4-yl)piperazine-1-carbonyl)piperidin-1-yl)-3-methyl-2-oxo-2,3-dihydro-1H-benzo[d]imidazol-1-yl)piperidine-2,6-dione]: on EGFR (L858R/T790M/C797S), it took 0.00323 µM to reach half-maximal degradation (DC50) and the Dmax was 86.4%. Also, in the test with EGFR (Del19/T790M/C797S), the DC50 stood at 0.00123 µM and the “DTC Dmax (%)” value turned out to be 94.57%.
On to `CCc1cc(Nc2ncc(Br)c(Nc3cnc4ccccc4c3P(C)(C)=O)n2)c(OC)cc1N1CCC(N2CCN(CCc3ccc(C4CCC(=O)NC4=O)c(F)c3)CC2)CC1` (stereo not drawn) [Example 2, 3-(4-(2-(4-(1-(4-((5-bromo-4-((4-(dimethylphosphoryl)quinolin-3-yl)amino)pyrimidin-2-yl)amino)-2-ethyl-5-methoxyphenyl)piperidin-4-yl)piperazin-1-yl)ethyl)-2-fluorophenyl)piperidine-2,6-dione], for which, on EGFR (L858R/T790M/C797S), the 50% degradation concentration (DC50) was 0.146 µM and the Dmax was 85%. Besides, in the test on EGFR (Del19/T790M/C797S), half-maximal degradation (DC50) was put at 0.0185 µM and the “DTC Dmax (%)” value is reported as 86.75%.
In the same order, the values of `CCc1cc(Nc2ncc(Br)c(Nc3cnc4ccccc4c3P(C)(C)=O)n2)c(OC)cc1N1CCC(N2CCN(CCc3cccc4c3n(C)c(=O)n4C3CCC(=O)NC3=O)CC2)CC1` (stereo not drawn) [Example 21, 3-(4-(2-(4-(1-(4-((5-bromo-4-((4-(dimethylphosphoryl)quinolin-3-yl)amino)pyrimidin-2-yl)amino)-2-ethyl-5-methoxyphenyl)piperidin-4-yl)piperazin-1-yl)ethyl)-3-methyl-2-oxo-2,3-dihydro-1H-benzo[d]imidazol-1-yl)piperidine-2,6-dione] are 0.00502 µM, 93.3%, 0.00111 µM and 94.17%.
The matching figures for `CCc1cc(Nc2ncc(Br)c(Nc3cnc4ccccc4c3P(C)(C)=O)n2)c(OC)cc1N1CCC(N2CCN(C(=O)[C@H]3C[C@H](N(C)c4cc(F)c(C5CCC(=O)NC5=O)c(F)c4)C3)CC2)CC1` (stereo partly drawn) [Example 18, 3-(4-(((1r,3r)-3-(4-(1-(4-((5-bromo-4-((4-(dimethylphosphoryl)quinolin-3-yl)amino)pyrimidin-2-yl)amino)-2-ethyl-5-methoxyphenyl)piperidin-4-yl)piperazine-1-carbonyl)cyclobutyl)(methyl)amino)-2,6-difluorophenyl)piperidine-2,6-dione]: 0.0146 µM, 90.7%, 0.00395 µM and 97.59%.
On EGFR (L858R/T790M/C797S), `CCc1cc(Nc2ncc(Br)c(Nc3cnc4cccnc4c3P(C)(C)=O)n2)c(OC)cc1N1CCC(N2CCN(CCC3CCN(c4cc(F)c(C5CCC(=O)NC5=O)c(F)c4)CC3)CC2)CC1` (stereo not drawn) [Example 9, 3-(4-(4-(2-(4-(1-(4-((5-bromo-4-((4-(dimethylphosphoryl)-1,5-naphthyridin-3-yl)amino)pyrimidin-2-yl)amino)-2-ethyl-5-methoxyphenyl)piperidin-4-yl)piperazin-1-yl)ethyl)piperidin-1-yl)-2,6-difluorophenyl)piperidine-2,6-dione] had a DC50 of 0.0293 µM and a maximal degradation (Dmax) of 88%. In addition, in the test on EGFR (Del19/T790M/C797S), the half-maximal degradation concentration (DC50) was determined as 0.0126 µM and the “DTC Dmax (%)” value is 96.14%.
`CCc1cc(Nc2ncc(Br)c(Nc3cnc4ccccc4c3P(C)(C)=O)n2)c(OC)cc1N1CCC(N2CCN(CCC3CCN(c4cc(F)c(C5CCC(=O)NC5=O)c(F)c4)CC3)CC2)CC1` (stereo not drawn) [Example 1, 3-(4-(4-(2-(4-(1-(4-((5-bromo-4-((4-(dimethylphosphoryl)quinolin-3-yl)amino)pyrimidin-2-yl)amino)-2-ethyl-5-methoxyphenyl)piperidin-4-yl)piperazin-1-yl)ethyl)piperidin-1-yl)-2,6-difluorophenyl)piperidine-2,6-dione]: on EGFR (L858R/T790M/C797S), the half-maximal degradation concentration (DC50) stood at 0.025 µM and the Dmax worked out at 90.7%. Moreover, in the test on EGFR (Del19/T790M/C797S), the 50% degradation concentration (DC50) stood at 0.0104 µM and the “DTC Dmax (%)” value came to 96.55%.
At EGFR (L858R/T790M/C797S), `CCc1cc(Nc2ncc(Br)c(Nc3cnc4cnccc4c3P(C)(C)=O)n2)c(OC)cc1N1CCC(N2CCN(CCc3cc(F)c(C4CCC(=O)NC4=O)c(F)c3)CC2)CC1` (stereo not drawn) [Example 28, 3-(4-(2-(4-(1-(4-((5-bromo-4-((4-(dimethylphosphoryl)-1,7-naphthyridin-3-yl)amino)pyrimidin-2-yl)amino)-2-ethyl-5-methoxyphenyl)piperidin-4-yl)piperazin-1-yl)ethyl)-2,6-difluorophenyl)piperidine-2,6-dione] had a DC50 of 0.00895 µM and a Dmax of 81.9%. For the same molecule, in the test on EGFR (Del19/T790M/C797S), it took 0.0054 µM to reach half-maximal degradation (DC50) and the “DTC Dmax (%)” value was 90.9%.
The matching figures for `CCc1cc(Nc2ncc(Br)c(Nc3cnc4c(C)cccc4c3P(C)(C)=O)n2)c(OC)cc1N1CCC(N2CCN(CCc3cc(F)c(C4CCC(=O)NC4=O)c(F)c3)CC2)CC1` (stereo not drawn) [Example 10, 3-(4-(2-(4-(1-(4-((5-bromo-4-((4-(dimethylphosphoryl)-8-methylquinolin-3-yl)amino)pyrimidin-2-yl)amino)-2-ethyl-5-methoxyphenyl)piperidin-4-yl)piperazin-1-yl)ethyl)-2,6-difluorophenyl)piperidine-2,6-dione]: 0.219 µM, 88.4%, 0.0248 µM and 88.58%.
